Legend:
Assay in all cases: relative viability (nuclei count vs DMSO), 5 days (fraction); higher = more cells survive
[1] = test system: ABC-1
Method in brief: (§1)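 Each reported value is a median over duplicate plates. It expresses relative viability: treated-well nuclei count divided by vehicle-well nuclei count. Lung cancer cell lines in 1536-well plates were dosed by pin tool a day after seeding, alone with one drug or with a fixed anchor-drug dose plus five library-drug doses (not always all listed) in √10 steps, and nuclei were counted after 5 days.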

[2] = test system: CAL-12T
Method in brief: as §1

[3] = test system: COR-L 105
Method in brief: as §1

[4] = test system: ChaGo-K-1
Method in brief: as §1

[5] = test system: EMC-BAC-2
Method in brief: as §1

[6] = test system: EPLC-272H
Method in brief: as §1

[7] = test system: HCC-15
Method in brief: as §1

[8] = test system: HCC-78
Method in brief: as §1

[9] = test system: HOP-62
Method in brief: as §1

[10] = test system: LXF-289
Method in brief: as §1

[11] = test system: NCI-H1666
Method in brief: as §1

[12] = test system: NCI-H1755
Method in brief: as §1

[13] = test system: NCI-H1915
Method in brief: as §1

[14] = test system: NCI-H1975
Method in brief: as §1

[15] = test system: NCI-H2023
Method in brief: as §1

[16] = test system: NCI-H2085
Method in brief: as §1

[17] = test system: NCI-H2126
Method in brief: as §1

[18] = test system: NCI-H3122
Method in brief: as §1

[19] = test system: NCI-H322M
Method in brief: as §1

[20] = test system: NCI-H441
Method in brief: as §1

[21] = test system: UMC-11
Method in brief: as §1

CCN(CC)CCCCNc1ncc2cc(-c3cc(OC)cc(OC)c3)c(NC(=O)NC(C)(C)C)nc2n1 + CC(C)C[C@H](NC(=O)[C@H](Cc1ccccc1)NC(=O)c1cnccn1)B(O)O [Bortezomib] (partner 0.002 µM)
relative viability ([1]; first compound 0.01 µM): 0.325
relative viability ([1]; first compound 0.03162 µM): 0.343
relative viability ([1]; first compound 0.1 µM): 0.342
relative viability ([1]; first compound 0.3162 µM): 0.247
relative viability ([1]; first compound 1 µM): 0.327
relative viability ([2]; first compound 0.03162 µM): 1.02
relative viability ([2]; first compound 0.1 µM): 1.03
relative viability ([2]; first compound 0.3162 µM): 1.26
relative viability ([2]; first compound 1 µM): 0.769
relative viability ([3]; first compound 0.01 µM): 0.691
relative viability ([3]; first compound 0.03162 µM): 0.824
relative viability ([3]; first compound 0.1 µM): 0.859
relative viability ([3]; first compound 0.3162 µM): 0.968
relative viability ([3]; first compound 1 µM): 0.732
relative viability ([4]; first compound 0.01 µM): 1.08
relative viability ([4]; first compound 0.03162 µM): 1.14
relative viability ([4]; first compound 0.1 µM): 1.28
relative viability ([4]; first compound 0.3162 µM): 1.27
relative viability ([4]; first compound 1 µM): 0.742
relative viability ([5]; first compound 0.01 µM): 1.11
relative viability ([5]; first compound 0.03162 µM): 1.07
relative viability ([5]; first compound 0.1 µM): 1.11
relative viability ([5]; first compound 0.3162 µM): 1.19
relative viability ([5]; first compound 1 µM): 1.04
relative viability ([6]; first compound 0.01 µM): 1.02
relative viability ([6]; first compound 0.1 µM): 0.921
relative viability ([6]; first compound 0.3162 µM): 1.03
relative viability ([6]; first compound 1 µM): 0.796
relative viability ([7]; first compound 0.01 µM): 1.24
relative viability ([7]; first compound 0.03162 µM): 1.06
relative viability ([7]; first compound 0.1 µM): 1.06
relative viability ([7]; first compound 0.3162 µM): 1.19
relative viability ([7]; first compound 1 µM): 0.936
relative viability ([8]; first compound 0.01 µM): 0.66
relative viability ([8]; first compound 0.03162 µM): 0.487
relative viability ([8]; first compound 0.1 µM): 0.395
relative viability ([8]; first compound 0.3162 µM): 0.492
relative viability ([8]; first compound 1 µM): 0.464
relative viability ([9]; first compound 0.01 µM): 0.726
relative viability ([9]; first compound 0.03162 µM): 0.888
relative viability ([9]; first compound 0.1 µM): 0.728
relative viability ([9]; first compound 0.3162 µM): 0.717
relative viability ([9]; first compound 1 µM): 0.79
relative viability ([10]; first compound 0.01 µM): 0.99
relative viability ([10]; first compound 0.03162 µM): 1.08
relative viability ([10]; first compound 0.1 µM): 1.16
relative viability ([10]; first compound 0.3162 µM): 0.955
relative viability ([10]; first compound 1 µM): 0.846
relative viability ([11]; first compound 0.01 µM): 0.74
relative viability ([11]; first compound 0.03162 µM): 0.848
relative viability ([11]; first compound 0.1 µM): 0.837
relative viability ([11]; first compound 0.3162 µM): 0.724
relative viability ([11]; first compound 1 µM): 0.733
relative viability ([12]; first compound 0.01 µM): 0.977
relative viability ([12]; first compound 0.03162 µM): 0.992
relative viability ([12]; first compound 0.1 µM): 1.01
relative viability ([12]; first compound 0.3162 µM): 1.07
relative viability ([12]; first compound 1 µM): 0.936
relative viability ([13]; first compound 0.01 µM): 1.07
relative viability ([13]; first compound 0.03162 µM): 1.1
relative viability ([13]; first compound 0.1 µM): 1.18
relative viability ([13]; first compound 0.3162 µM): 1.09
relative viability ([13]; first compound 1 µM): 0.951
relative viability ([14]; first compound 0.01 µM): 0.442
relative viability ([14]; first compound 0.03162 µM): 0.375
relative viability ([14]; first compound 0.1 µM): 0.394
relative viability ([14]; first compound 0.3162 µM): 0.451
relative viability ([14]; first compound 1 µM): 0.365
relative viability ([15]; first compound 0.01 µM): 0.925
relative viability ([15]; first compound 0.03162 µM): 1.08
relative viability ([15]; first compound 0.1 µM): 1.16
relative viability ([15]; first compound 0.3162 µM): 1.13
relative viability ([15]; first compound 1 µM): 0.968
relative viability ([16]; first compound 0.01 µM): 0.991
relative viability ([16]; first compound 0.03162 µM): 1.03
relative viability ([16]; first compound 0.1 µM): 1.09
relative viability ([16]; first compound 0.3162 µM): 1.15
relative viability ([16]; first compound 1 µM): 0.999
relative viability ([17]; first compound 0.01 µM): 1.23
relative viability ([17]; first compound 0.03162 µM): 1.16
relative viability ([17]; first compound 0.1 µM): 1.22
relative viability ([17]; first compound 0.3162 µM): 1.19
relative viability ([17]; first compound 1 µM): 1.13
relative viability ([18]; first compound 0.01 µM): 1.02
relative viability ([18]; first compound 0.03162 µM): 1.07
relative viability ([18]; first compound 0.1 µM): 1.1
relative viability ([18]; first compound 0.3162 µM): 1.06
relative viability ([18]; first compound 1 µM): 1.01
relative viability ([19]; first compound 0.01 µM): 1.29
relative viability ([19]; first compound 0.03162 µM): 1.36
relative viability ([19]; first compound 0.1 µM): 1.35
relative viability ([19]; first compound 0.3162 µM): 1.39
relative viability ([19]; first compound 1 µM): 1.08
relative viability ([20]; first compound 0.01 µM): 0.475
relative viability ([20]; first compound 0.03162 µM): 0.45
relative viability ([20]; first compound 0.1 µM): 0.817
relative viability ([20]; first compound 0.3162 µM): 0.489
relative viability ([20]; first compound 1 µM): 0.492
relative viability ([21]; first compound 0.01 µM): 0.702
relative viability ([21]; first compound 0.03162 µM): 0.722
relative viability ([21]; first compound 0.1 µM): 0.73
relative viability ([21]; first compound 0.3162 µM): 0.945
relative viability ([21]; first compound 1 µM): 0.544
